# Assay results reported in patent publication US9732104B2, “Ether compounds for treatment of complement mediated disorders” (Achillion Pharmaceuticals, Inc., priority 2014, dated 2017).
# Target: Human factor D (Homo sapiens (Human), UniProt P00746)
# Assay: Human Factor D Assay
# Type: biochemical
# Settings: Human factor D purified from human serum, 80 nM; substrate Z-L-Lys-SBzl with DTNB; assay of Example 8
# Experimental: The assay of Example 8 was used to determine the IC50's of the compounds. Other standard factor D inhibition assays are also available.
# Example 8. Human Factor D Assay
# Human factor D (purified from human serum, Complement Technology, Inc.) at 80 nM final concentration is incubated with test compound at various concentrations for 5 minutes at room temperature in 50 mM Tris, 1M NaCl, pH 7.5. A synthetic substrate Z-L-Lys-SBzl and DTNB (Ellman's reagent) are added to final concentrations of 100 µM each. The increase in color is recorded at OD405 nm in a microplate in kinetic mode over 30 minutes with 30 second time points in a […]. IC50 values are calculated by non-linear regression from the percentage of inhibition of complement factor D activity as a function of test compound concentration.
# Human factor D, sequence (P00746 26-253): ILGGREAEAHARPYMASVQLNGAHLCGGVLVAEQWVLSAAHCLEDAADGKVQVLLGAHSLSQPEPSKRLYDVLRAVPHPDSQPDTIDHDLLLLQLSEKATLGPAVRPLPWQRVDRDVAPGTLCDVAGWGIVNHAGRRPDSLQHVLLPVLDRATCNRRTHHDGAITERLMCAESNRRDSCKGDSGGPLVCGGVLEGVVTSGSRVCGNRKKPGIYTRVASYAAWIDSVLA
row,SMILES,IC50 [µM]
1,"CC(=O)c1cn(CC(=O)N2C[C@H](F)C[C@H]2C(=O)N[C@H](C)c2cccc(Cl)c2F)c2cc(OCP(=O)(O)O)ccc12 [Compound 19, (3-acetyl-1-(2-((2S,4R)-2-((R)-1-(3-chloro-2-fluorophenyl)ethyl-carbamoyl)-4-fluoropyrrolidin-1-yl)-2-oxoethyl)-1H-indol-6-yloxy)methylphosphonic acid]",< 1
2,"CC(=O)c1cn(CC(=O)N2C[C@H](F)C[C@H]2C(=O)Nc2cccc(-c3ccccc3Cl)c2F)c2ccc(Oc3ncc(Br)cn3)cc12 [Compound 33, (2S,4R)-1-(2-(3-acetyl-5-(5-bromopyrimidin-2-yloxy)-1H-indol-1-yl)acetyl)-N-(2′-chloro-2-fluorobiphenyl-3-yl)-4-fluoropyrrolidine-2-carboxamide]",< 1
3,"CC(=O)c1cn(CC(=O)N2C[C@H](F)C[C@H]2CNS(=O)(=O)c2cccc(Cl)c2F)c2cc(OCP(=O)(O)O)ccc12 [Compound 22, (3-acetyl-1-(2-((2S,4R)-2-((3-chloro-2-fluoro-phenylsulfonamido)meth-yl)-4-fluoropyrrolidin-1-yl)-2-oxoethyl)-1H-indol-6-yloxy)methylphosphonic acid]",< 1
4,"CC(=O)c1cn(CC(=O)N2C[C@H](F)C[C@H]2C(=O)Nc2cccc(-c3ccccc3Cl)c2F)c2ccc(Oc3ncc(C(F)(F)F)cn3)cc12 [Compound 42, (2S,4R)-1-(2-(3-acetyl-5-(5-(trifluoromethyl)pyrimidin-2-yloxy)-1H-indol-1-yl)acetyl)-N-(2′-chloro-2-fluorobiphenyl-3-yl)-4-fluoropyrrolidine-2-carboxamide]",< 1
5,"CC(=O)c1cn(CC(=O)N2C[C@H](F)C[C@H]2C(=O)Nc2cccc(Oc3ccccc3)c2)c2cc(OCP(=O)(O)O)ccc12 [Compound 26, (3-acetyl-1-(2-((2S,4R)-4-fluoro-2-(3-phenoxy-phenylcarbamoyl)pyrrolidin-1-yl)-2-oxoethyl)-1H-indol-6-yloxy)methylphosphonic acid]",< 1
6,"CC(=O)c1cn(CC(=O)N2C[C@H](F)C[C@H]2C(=O)Nc2cccc(Br)n2)c2ccc(Oc3ncccn3)cc12 [Compound 39, (2S,4R)-1-(2-(3-acetyl-5-(pyrimidin-2-yloxy)-1H-indol-1-yl)acetyl)-N-(6-bromopyridin-2-yl)-4-fluoropyrrolidine-2-carboxamide]",< 1
7,"CC(=O)c1cn(CC(=O)N2C[C@H](F)C[C@H]2C(=O)NCc2cccc(Cl)c2F)c2cc(OCP(=O)(N[C@@H](C)C(=O)OC(C)C)N[C@@H](C)C(=O)OC(C)C)ccc12 [Compound 24, (2S,2′S)-isopropyl 2,2′-(((3-acetyl-1-(2-((2S,4R)-2-(3-chloro-2-fluorobenzylcarbamoyl)-4-fluoropyrrolidin-1-yl)-2-oxoethyl)-1H-indol-6-yloxy)methyl)phosph-oryl)bis(azanediyl)di-propanoate]",< 1
8,"CC(=O)c1cn(CC(=O)N2C[C@H](F)C[C@H]2C(=O)NCc2cccc(Cl)c2F)c2cc(OCS(=O)(=O)NC(C)(C)C)ccc12 [Compound 15, (2S,4R)-1-(2-(3-acetyl-6-(N-tert-butylsulfamoylmethoxy)-1H-indol-1-yl)acetyl)-N-(3-chloro-2-fluorobenzyl)-4-fluoropyrrolidine-2-carboxamide]",< 1
9,"CC(=O)c1cn(CC(=O)N2[C@@H]3C[C@@H]3C[C@H]2C(=O)NCc2cccc(Cl)c2F)c2cc(OCC3CC3)ccc12 [Compound 3, (1R,3S,5R)-2-(2-(3-acetyl-6-(cyclopropylmethoxy)-1H-indol-1-yl)acetyl)-N-(3-chloro-2-fluorobenzyl)-2-azabicyclo[3.1.0]hexane-3-carboxamide]",< 1
10,"CCP(=O)(O)COc1ccc2c(C(C)=O)cn(CC(=O)N3C[C@H](F)C[C@H]3C(=O)NCc3cccc(Cl)c3F)c2c1 [Compound 16, (3-acetyl-1-(2-((2S,4R)-2-(3-chloro-2-fluorobenzylcarbamoyl)-4-fluoropyrrolidin-1-yl)-2-oxoethyl)-1H-indol-6-yloxy)methyl(eth-yl)phosphinic acid]",< 1
